pIC50: −log10 of the molar value.
Assays:
[1] = test system: VEGF (VEGF-A/Vasculotropin); assay: cytokine/chemokine array (in vitro), VEGF; type: cell-based, rat; conditions: (+) IL-1β 1 nM, Pa5′ 100 μM
Method: (§1) In like manner with Example 4, liver cells were isolated from male Wistar rats by a collagenase perfusion method. The isolated liver cells were suspended in a medium (similar to that in Example 4) at 1.2×10^6 cells/mL, seeded in 35 mm plastic dishes (similar to those in Example 4) (1 mL/dish), and cultured in an incubator with 5% CO2 at 37° C. After 5 hours, the medium was replaced with fresh WE free of any serum and hormone, and the cells were cultured overnight until before use of the cells for an experiment.
(§2) On day 1 after the start of the culture, cells were subjected to replacement with fresh WE free of any serum and hormone, and IL-1β (similar to that in Example 4), and Pa5 extracted with methanol in Example 1 or Pa5′ extracted with methanol in Example 2 were added to the medium. The concentrations of IL-1β, Pa5, and Pa5′ in each medium were 1 nM, 20 μM, and 100 μM, respectively (Table 1). Then, the cells were cultured at 37° C., and the medium was collected 3 hours after the start of the culture. The collected medium was centrifuged for 1 minute at 5000 rpm to remove cellular debris, and the supernatant was used in an assay. The supernatant was preserved at −80° C. until performing the assay.
(§3) The productions of the various inflammatory cytokines/chemokines were measured according to an accompanying protocol using Rat Cytokine Antibody Array (R&D Systems) (http://www.rndsystems.com/product_detail_objectname_ratcytokinearray.aspx) capable of detecting 29 kinds of cytokines/chemokines in Proteome Profiler® Antibody Array. In the measurement, 1 mL of the supernatant of the medium obtained as described above was used.
(§4) In the above-described method, the 29 kinds of the cytokines/chemokines can be detected at once, and chemiluminescence on the filter of Proteome Profiler Antibody Array increases in proportion to the amount of each cytokine/chemokine. Thus, the chemiluminescence on the filter of Proteome Profiler Antibody Array was detected with LAS3000mini (GE Healthcare), subjected to densitometry analysis, and converted into a numeric value. The densitometry analysis was carried out with reference to http://www.hm6.aitai.ne.jp/˜maxcat/imageJ/technique.html#gels (the heading of “Analyzing Electrophoretic Gels”) using ImageJ software.

[2] = test system: sICAM-1 (CD54); assay: cytokine/chemokine array (in vitro), sICAM-1; type: cell-based, rat; conditions: (+) IL-1β 1 nM, Pa5′ 100 μM
Method: as §1, §2, §3, §4

[3] = test system: MIG (CXCL9); assay: cytokine/chemokine array (in vitro), MIG; type: cell-based, rat; conditions: (+) IL-1β 1 nM, Pa5′ 100 μM
Method: as §1, §2, §3, §4

[4] = test system: CINC-3; assay: cytokine/chemokine array (in vitro), CINC-3; type: cell-based, rat; conditions: (+) IL-1β 1 nM, Pa5′ 100 μM
Method: as §1, §2, §3, §4

[5] = test system: CINC-2α/β; assay: cytokine/chemokine array (in vitro), CINC-2α/β; type: cell-based, rat; conditions: (+) IL-1β 1 nM, Pa5′ 100 μM
Method: as §1, §2, §3, §4

[6] = test system: IL-17; assay: cytokine/chemokine array (in vitro), IL-17; type: cell-based, rat; conditions: Pa5′ 100 μM
Method: as §1, §2, §3, §4

[7] = test system: Thymus Chemokine (CXCL7); assay: cytokine/chemokine array (in vitro), Thymus Chemokine; type: cell-based, rat; conditions: Pa5′ 100 μM
Method: as §1, §2, §3, §4

[8] = test system: Fractalkine (CX3CL1); assay: cytokine/chemokine array (in vitro), Fractalkine; type: cell-based, rat; conditions: Pa5′ 100 μM
Method: as §1, §2, §3, §4

[9] = test system: nitrogen monoxide (NO) production due to IL-1β; assay: NO production inhibitory action in IL-1β-stimulated rat liver cells (Griess method); type: cell-based; conditions: IL-1β 1 nM, 8 hours
Method: Liver cells were isolated from male Wistar rats (200 to 250 g, Charles River) by a collagenase perfusion method (collagenase: Wako Pure Chemicals). The isolated liver cells were suspended in a medium at 6×10^5 cells/mL, seeded in 35 mm plastic dishes (Falcon Plastic) (2 mL/dish), and cultured in an incubator with 5% CO2 at 37° C. Williams' Medium E (WE) containing 10% newborn calf serum, HEPES (5 mM), penicillin (100 U/mL), streptomycin (0.1 mg/mL), dexamethasone (10 nM), and insulin (10 nM) was used as the medium. After 5 hours, the medium was replaced with fresh WE free of any serum and hormone, and the cells were cultured overnight until before use of the cells for an experiment.
On day 1 after the start of the culture, cells were subjected to replacement with fresh WE free of any serum and hormone, and recombinant rat IL-1β (purity of 97% or more) (PeproTech, Rocky Hill, N.J., USA), and Pa5 extracted with methanol in Example 1 or negletein in the comparative example were added to the medium. In each medium, the concentration of IL-1β was 1 nM, the concentrations of Pa5 were 5, 10, and 20 μM, and the concentrations of negletein were 10, 20, and 40 μM (FIG. 1). The amount of NO in each medium was measured 8 hours after the addition of IL-1β, and Pa5 or negletein by a Griess method (Green L C et al, Anal Biochem 1982; 126: 131-138). More specifically, the amount of nitrite (stable metabolite of NO) in each medium was measured.
Liver cells originated from rats were cultured in like manner with Example 4. On day 1 after the start of the culture, the cells were subjected to replacement with fresh WE free of any serum and hormone, and recombinant rat IL-1β (similar to that in Example 4) and Pa9 extracted with methanol in Example 3 were added to the medium. In each medium, the concentration of IL-1β was 1 nM, and the concentrations of Pa9 were 10 μM, 50 μM, and 100 μM (FIG. 5). The amount of NO in each medium was measured 8 hours after the addition of IL-1β and Pa9 in like manner with Example 4.

[10] = (+) IL-1β 1 nM, 3 hours, (+) alone = 100.0
[11] = (+) IL-1β 1 nM, medium at 3 hours
[12] = rat liver cells, IL-1β 1 nM, 3 hours

SMILES: COc1cc(O)c2c(c1O)OC(c1ccccc1)CC2=O (stereo not shown) [Pa5′, 5,8-dihydroxy-7-methoxyflavanone]
- VEGF (VEGF-A/Vasculotropin) (%) ([1]; 3 hours, (+) alone = 100.0): 109.7%
- VEGF (VEGF-A/Vasculotropin) chemiluminescence densitometry, Average ([1]; medium at 3 hours): 896.7
- VEGF (VEGF-A/Vasculotropin) chemiluminescence densitometry, first value ([1]; medium at 3 hours): 875.1
- VEGF (VEGF-A/Vasculotropin) chemiluminescence densitometry, second value ([1]; medium at 3 hours): 918.4
- sICAM-1 (CD54) (%) ([2]; 3 hours, (+) alone = 100.0): 68.4%
- sICAM-1 (CD54) chemiluminescence densitometry, Average ([2]; medium at 3 hours): 257.3
- sICAM-1 (CD54) chemiluminescence densitometry, first value ([2]; medium at 3 hours): 250.3
- sICAM-1 (CD54) chemiluminescence densitometry, second value ([2]; medium at 3 hours): 264.3
- MIG (CXCL9) (%) ([3]; 3 hours, (+) alone = 100.0): 86.8%
- MIG (CXCL9) chemiluminescence densitometry, Average ([3]; medium at 3 hours): 666.4
- MIG (CXCL9) chemiluminescence densitometry, first value ([3]; medium at 3 hours): 672.8
- MIG (CXCL9) chemiluminescence densitometry, second value ([3]; medium at 3 hours): 660.1
- CINC-3 (%) ([4]; 3 hours, (+) alone = 100.0): 60.8%
- CINC-3 chemiluminescence densitometry, Average ([4]; medium at 3 hours): 1846.9
- CINC-3 chemiluminescence densitometry, first value ([4]; medium at 3 hours): 1849.2
- CINC-3 chemiluminescence densitometry, second value ([4]; medium at 3 hours): 1844.7
- CINC-2α/β (%) ([5]; 3 hours, (+) alone = 100.0): 96.8%
- CINC-2α/β chemiluminescence densitometry, Average ([5]; medium at 3 hours): 5839.6
- CINC-2α/β chemiluminescence densitometry, first value ([5]; medium at 3 hours): 5944.2
- CINC-2α/β chemiluminescence densitometry, second value ([5]; medium at 3 hours): 5735.0
- IL-17 (%) [6, 10]: 29.6%
- IL-17 chemiluminescence densitometry, Average [6, 11]: 36.7
- IL-17 chemiluminescence densitometry, first value [6, 11]: 6.1
- IL-17 chemiluminescence densitometry, second value [6, 11]: 67.2
- induction of IL-17 [6, 12]: strongly inhibit
- Thymus Chemokine (CXCL7) (%) [7, 10]: 23.1%
- Thymus Chemokine (CXCL7) chemiluminescence densitometry, Average [7, 11]: 73.0
- Thymus Chemokine (CXCL7) chemiluminescence densitometry, first value [7, 11]: 62.8
- Thymus Chemokine (CXCL7) chemiluminescence densitometry, second value [7, 11]: 83.2
- induction of thymus chemokine (CXCL7) [7, 12]: strongly inhibit
- Fractakine (CX3CL1) (%) [8, 10]: 42.7%
- Fractakine (CX3CL1) chemiluminescence densitometry, Average [8, 11]: 310.1
- Fractakine (CX3CL1) chemiluminescence densitometry, first value [8, 11]: 287.0
- Fractakine (CX3CL1) chemiluminescence densitometry, second value [8, 11]: 333.3
- induction of fractalkine (CX3CL1) [8, 12]: strongly inhibit

SMILES: COc1cc2oc(-c3ccccc3)cc(=O)c2c(O)c1O [negletein, reference compound]
- pIC50 ([9]; nitrite by Griess method, read-out: IC50 value (drug concentration at NO production of 50%)): 4.79
- production of NO due to IL-1β ([9]; negletein 10, 20, 40 μM): dose-dependently inhibited

Source: patent US9573920B2, “Compound, medicine, anti-inflammatory, cosmetic, food and drink, and method for producing compound” (Amino Up Chemical Co., Ltd., priority 2013, dated 2017)
